# Assay results published in patent US6355799B1, “Substituted benzene compounds, process for their preparation, and herbicidal and defoliant compositions containing them” (ISK Americas Incorporated, priority 1997, dated 2002).
# Columns and labels:
# Type in all cases: in vivo
# [1] = system: field corn (Zea mays L., var. Dekalb 535, CORN); assay: Pre-emerge test, crop safety; conditions: rated 14 days after application, 0 = no damage, 100 = complete death
# Summary of the method: (§1)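 Sandy loam pots; pre-emerge: sown 1 d pre-spray, surface-watered after, then bottom-watered. Post-emerge: sown 8–21 d before, 2–3 leaf stage, + 0.25% v/v NIS, bottom-watered. Acetone, 187 l/ha track spray, 15–1000 g ai/ha. 0–100 injury score, day 14.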
# [2] = system: upland rice (Oryza sp., var. Tebonnet, RICE); assay: Pre-emerge test, crop safety; conditions: rated 14 days after application, 0 = no damage, 100 = complete death
# Summary of the method: as §1
# [3] = system: redroot pigweed (Amaranthus retroflexus, AMARE); assay: Pre-emerge test, greenhouse herbicide activity screening; conditions: rated 14 days after application, 0 = no damage, 100 = complete death
# Summary of the method: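 Rating: 0–100 visual injury, 14 DAA. Application: acetone, 187 l/ha, 15–1000 g ai/ha, flat-fan track sprayer with nozzle 40–45 cm above soil or canopy. Post-emerge runs used 0.25% v/v surfactant on 2–3 leaf plants.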
# [4] = system: lambsquarters (Chenopodium album, CHEAL); assay: as above; conditions: rated 14 days after application, 0 = no damage, 100 = complete death
# Summary of the method: (§2)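 Compounds in acetone were track-sprayed at 15-1000 g ai/ha (187 l/ha) on sandy loam pots: pre-emerge one day after seeding, post-emerge at 2-3 leaf stage with 0.25% v/v non-ionic surfactant. Phytotoxicity was rated 14 days later on a 0 (no damage) to 100 (complete death) scale.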
# [5] = system: velvetleaf (Abutilon theophrasti, ABUTH); assay: as above; conditions: rated 14 days after application, 0 = no damage, 100 = complete death
# Summary of the method: as §2
# [6] = system: green foxtail (Setaria viridis, SETVI); assay: as above; conditions: rated 14 days after application, 0 = no damage, 100 = complete death
# Summary of the method: as §2
# [7] = system: large crabgrass (Digitaria sanguinalis, DIGSA); assay: as above; conditions: rated 14 days after application, 0 = no damage, 100 = complete death
# Summary of the method: as §2
# [8] = system: ivyleaf morningglory (Ipomoea hederacea, IPOHE); assay: as above; conditions: rated 14 days after application, 0 = no damage, 100 = complete death
# Summary of the method: as §2
# [9] = system: barnyardgrass (Echinochloa crus-galli, ECHCG); assay: as above; conditions: rated 14 days after application, 0 = no damage, 100 = complete death
# Summary of the method: as §2
# [10] = system: sicklepod (Cassia obtusifolia, CASOB); assay: as above; conditions: rated 14 days after application, 0 = no damage, 100 = complete death
# Summary of the method: as §2
# [11] = system: johnsongrass (Sorghum halepense, SORHA); assay: as above; conditions: rated 14 days after application, 0 = no damage, 100 = complete death
# Summary of the method: as §2
# [12] = system: field corn (Zea mays L., var. Dekalb 535, CORN); assay: Post-emerge test, crop safety; conditions: post-emerge, 14 days after application, rating scale 0-100
# Summary of the method: as §2
# [13] = system: upland rice (Oryza sp., var. Tebonnet, RICE); assay: Post-emerge test, crop safety; conditions: post-emerge, 14 days after application, rating scale 0-100
# Summary of the method: as §2
# [14] = system: lambsquarters (Chenopodium album, CHEAL); assay: Post-emerge test, greenhouse herbicide activity screening; conditions: post-emerge, 14 days after application, rating scale 0-100
# Summary of the method: (§3)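 Fourteen days after spraying, crop and weed injury was graded visually from 0, no effect, to 100, every plant dead. Test substances were dissolved in acetone and applied at 15–1000 g ai/ha with a flat-fan nozzle. Application was either pre-emergence, one day after sowing, or post-emergence at the 2–3 leaf stage.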
# [15] = system: velvetleaf (Abutilon theophrasti, ABUTH); assay: as above; conditions: post-emerge, 14 days after application, rating scale 0-100
# Summary of the method: as §3
# [16] = system: common ragweed (Ambrosia artemisizfolia L., AMBEL); assay: as above; conditions: post-emerge, 14 days after application, rating scale 0-100
# Summary of the method: as §3
# [17] = system: green foxtail (Setaria viridis, SETVI); assay: as above; conditions: post-emerge, 14 days after application, rating scale 0-100
# Summary of the method: as §3
# [18] = system: large crabgrass (Digitaria sanguinalis, DIGSA); assay: as above; conditions: post-emerge, 14 days after application, rating scale 0-100
# Summary of the method: as §3
# [19] = system: ivyleaf morningglory (Ipomoea hederacea, IPOHE); assay: as above; conditions: post-emerge, 14 days after application, rating scale 0-100
# Summary of the method: as §3
# [20] = system: barnyardgrass (Echinochloa crus-galli, ECHCG); assay: as above; conditions: post-emerge, 14 days after application, rating scale 0-100
# Summary of the method: as §3
# [21] = system: sicklepod (Cassia obtusifolia, CASOB); assay: as above; conditions: post-emerge, 14 days after application, rating scale 0-100
# Summary of the method: as §3
# [22] = system: redroot pigweed (Amaranthus retroflexus, AMARE); assay: as above; conditions: post-emerge, 14 days after application, rating scale 0-100
# Summary of the method: as §3
# [23] = system: johnsongrass (Sorghum halepense, SORHA); assay: as above; conditions: post-emerge, 14 days after application, rating scale 0-100
# Summary of the method: as §3
smiles,measurement,setting,value
COc1c(Cl)cc(F)c(-n2c(=O)cc(C(F)(F)F)n(C)c2=O)c1NC(=O)c1cccc2ccccc12 [2-74],"Pre-emerge phytotoxicity rating (0-100), crop damage, CORN",[1]; 63 g ai/ha,0
same,"Pre-emerge phytotoxicity rating (0-100), crop damage, CORN",[1]; 250 g ai/ha,15
same,"Pre-emerge phytotoxicity rating (0-100), crop damage, RICE",[2]; 63 g ai/ha,30
same,"Pre-emerge phytotoxicity rating (0-100), crop damage, RICE",[2]; 250 g ai/ha,60
same,"Pre-emerge Herbicidal Activity, phytotoxicity rating (0-100), AMARE",[3]; 63 g ai/ha,100
same,"Pre-emerge Herbicidal Activity, phytotoxicity rating (0-100), AMARE",[3]; 250 g ai/ha,100
same,"Pre-emerge Herbicidal Activity, phytotoxicity rating (0-100), CHEAL",[4]; 63 g ai/ha,100
same,"Pre-emerge Herbicidal Activity, phytotoxicity rating (0-100), CHEAL",[4]; 250 g ai/ha,100
same,"Pre-emerge Herbicidal Activity, phytotoxicity rating (0-100), ABUTH",[5]; 63 g ai/ha,100
same,"Pre-emerge Herbicidal Activity, phytotoxicity rating (0-100), ABUTH",[5]; 250 g ai/ha,100
same,"Pre-emerge Herbicidal Activity, phytotoxicity rating (0-100), SETVI",[6]; 63 g ai/ha,70
same,"Pre-emerge Herbicidal Activity, phytotoxicity rating (0-100), SETVI",[6]; 250 g ai/ha,100
same,"Pre-emerge Herbicidal Activity, phytotoxicity rating (0-100), DIGSA",[7]; 63 g ai/ha,20
same,"Pre-emerge Herbicidal Activity, phytotoxicity rating (0-100), DIGSA",[7]; 250 g ai/ha,100
same,"Pre-emerge Herbicidal Activity, phytotoxicity rating (0-100), IPOHE",[8]; 63 g ai/ha,0
same,"Pre-emerge Herbicidal Activity, phytotoxicity rating (0-100), IPOHE",[8]; 250 g ai/ha,50
same,"Pre-emerge Herbicidal Activity, phytotoxicity rating (0-100), ECHCG",[9]; 63 g ai/ha,0
same,"Pre-emerge Herbicidal Activity, phytotoxicity rating (0-100), ECHCG",[9]; 250 g ai/ha,100
same,"Pre-emerge Herbicidal Activity, phytotoxicity rating (0-100), CASOB",[10]; 63 g ai/ha,40
same,"Pre-emerge Herbicidal Activity, phytotoxicity rating (0-100), CASOB",[10]; 250 g ai/ha,70
same,"Pre-emerge Herbicidal Activity, phytotoxicity rating (0-100), SORHA",[11]; 63 g ai/ha,0
same,"Pre-emerge Herbicidal Activity, phytotoxicity rating (0-100), SORHA",[11]; 250 g ai/ha,100
same,phytotoxicity rating CORN,[12]; 63 g ai/ha,0
same,phytotoxicity rating CORN,[12]; 250 g ai/ha,15
same,phytotoxicity rating RICE,[13]; 63 g ai/ha,25
same,phytotoxicity rating RICE,[13]; 250 g ai/ha,50
same,phytotoxicity rating CHEAL,[14]; 63 g ai/ha,70
same,phytotoxicity rating CHEAL,[14]; 250 g ai/ha,70
same,phytotoxicity rating ABUTH,[15]; 63 g ai/ha,100
same,phytotoxicity rating ABUTH,[15]; 250 g ai/ha,100
same,phytotoxicity rating AMBEL,[16]; 63 g ai/ha,70
same,phytotoxicity rating AMBEL,[16]; 250 g ai/ha,95
same,phytotoxicity rating SETVI,[17]; 63 g ai/ha,0
same,phytotoxicity rating SETVI,[17]; 250 g ai/ha,20
same,phytotoxicity rating DIGSA,[18]; 63 g ai/ha,0
same,phytotoxicity rating DIGSA,[18]; 250 g ai/ha,0
same,phytotoxicity rating IPOHE,[19]; 63 g ai/ha,60
same,phytotoxicity rating IPOHE,[19]; 250 g ai/ha,60
same,phytotoxicity rating ECHCG,[20]; 63 g ai/ha,0
same,phytotoxicity rating ECHCG,[20]; 250 g ai/ha,0
same,phytotoxicity rating CASOB,[21]; 63 g ai/ha,30
same,phytotoxicity rating CASOB,[21]; 250 g ai/ha,70
same,phytotoxicity rating AMARE,[22]; 63 g ai/ha,95
same,phytotoxicity rating AMARE,[22]; 250 g ai/ha,100
same,phytotoxicity rating SORHA,[23]; 63 g ai/ha,0
same,phytotoxicity rating SORHA,[23]; 250 g ai/ha,0
